In patent US8524755B2 (priority 2009, dated 2013):

Legend:
Adenosine A1 (h) = target: T1, Adenosine A1 (h) (Homo sapiens, UniProt P30542); experiment: Binding A1 (h) (aa); details: read-out: % Inhibition of Control Specific Binding @ 10 μM
T1 construct: expressed in transfected cells; host or cells: CHO cells
T1 sequence (P30542 1-326): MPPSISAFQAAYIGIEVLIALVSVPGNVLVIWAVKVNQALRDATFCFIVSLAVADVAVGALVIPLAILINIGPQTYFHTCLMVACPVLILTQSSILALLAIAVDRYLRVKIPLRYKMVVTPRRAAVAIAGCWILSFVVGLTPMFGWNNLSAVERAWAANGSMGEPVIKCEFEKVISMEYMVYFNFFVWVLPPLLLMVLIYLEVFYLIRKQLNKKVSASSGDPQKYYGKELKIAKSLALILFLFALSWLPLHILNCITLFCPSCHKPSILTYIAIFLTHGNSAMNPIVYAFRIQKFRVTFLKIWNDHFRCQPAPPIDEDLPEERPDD
Method: (§1) Radioligand binding assay methods utilized to measure the activity of compounds of the invention will be familiar to those skilled in the art. In each assay case, the assay components such as, for example, the cell-type, ligand, reference compound and the like, will be familiar to practitioners of such an assay.
(§2) Analysis and Expression of Results: Compounds of the invention were tested in the biochemical assays and percent inhibition of specific binding was determined. The specific ligand binding to the receptors is defined as the difference between the total binding and the nonspecific binding determined in the presence of an excess of unlabelled ligand. The results are expressed as a percent inhibition of control specific binding (100−((measured specific binding/control specific binding)×100)) obtained in the presence of test compounds.

Angiotensin AT1 (h) = target: T2, Angiotensin AT1 (h) (Homo sapiens, UniProt P30556); experiment: Binding AT1 (h) (aa); details: read-out: % Inhibition of Control Specific Binding @ 10 μM
T2 construct: expressed in transfected cells; host or cells: HEK-293 cells
T2 sequence (P30556 1-359): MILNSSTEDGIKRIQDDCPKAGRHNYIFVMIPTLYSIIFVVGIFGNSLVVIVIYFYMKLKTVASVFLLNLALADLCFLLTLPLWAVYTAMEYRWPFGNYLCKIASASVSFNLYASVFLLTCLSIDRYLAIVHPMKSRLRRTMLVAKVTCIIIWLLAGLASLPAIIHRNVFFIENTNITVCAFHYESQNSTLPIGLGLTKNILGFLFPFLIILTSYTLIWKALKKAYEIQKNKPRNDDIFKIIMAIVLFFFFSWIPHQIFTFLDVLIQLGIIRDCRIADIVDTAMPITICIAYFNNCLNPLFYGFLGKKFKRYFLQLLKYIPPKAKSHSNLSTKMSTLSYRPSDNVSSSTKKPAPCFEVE
Method: as §1, §2

Melanocortin MC4 (h) = target: T3, Melanocortin MC4 (h) (Homo sapiens, UniProt P32245); experiment: Binding MC4 (h) (ag); details: read-out: % Inhibition of Control Specific Binding @ 10 μM
T3 construct: expressed in transfected cells; host or cells: CHO cells
T3 sequence (P32245 whole entry): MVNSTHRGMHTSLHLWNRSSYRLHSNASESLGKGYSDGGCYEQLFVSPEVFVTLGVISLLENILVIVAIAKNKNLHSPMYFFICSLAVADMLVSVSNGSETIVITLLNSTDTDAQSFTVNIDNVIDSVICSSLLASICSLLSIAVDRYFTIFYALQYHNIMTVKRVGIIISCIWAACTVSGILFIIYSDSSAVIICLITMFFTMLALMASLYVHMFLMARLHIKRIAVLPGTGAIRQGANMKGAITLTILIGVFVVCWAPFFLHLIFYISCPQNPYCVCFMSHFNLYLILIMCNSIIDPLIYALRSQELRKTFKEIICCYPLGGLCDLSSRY
Method: as §1, §2

opioid (ns) = experiment: Binding opioid (ns) (aa); design: species or system rat
Method: as §1, §2

[1] = system: Cl^− channel (GABA-gated); experiment: Binding Cl− channel (GABA-gated) (aa); design: species or system rat
Method: as §1, §2

dopamine transporter (h) = target: T4, dopamine transporter (h) (Homo sapiens, UniProt Q01959); experiment: Binding dopamine transporter (h) (aa); details: read-out: % Inhibition of Control Specific Binding @ 10 μM
T4 construct: expressed in transfected cells; host or cells: CHO cells
T4 sequence (Q01959 whole entry): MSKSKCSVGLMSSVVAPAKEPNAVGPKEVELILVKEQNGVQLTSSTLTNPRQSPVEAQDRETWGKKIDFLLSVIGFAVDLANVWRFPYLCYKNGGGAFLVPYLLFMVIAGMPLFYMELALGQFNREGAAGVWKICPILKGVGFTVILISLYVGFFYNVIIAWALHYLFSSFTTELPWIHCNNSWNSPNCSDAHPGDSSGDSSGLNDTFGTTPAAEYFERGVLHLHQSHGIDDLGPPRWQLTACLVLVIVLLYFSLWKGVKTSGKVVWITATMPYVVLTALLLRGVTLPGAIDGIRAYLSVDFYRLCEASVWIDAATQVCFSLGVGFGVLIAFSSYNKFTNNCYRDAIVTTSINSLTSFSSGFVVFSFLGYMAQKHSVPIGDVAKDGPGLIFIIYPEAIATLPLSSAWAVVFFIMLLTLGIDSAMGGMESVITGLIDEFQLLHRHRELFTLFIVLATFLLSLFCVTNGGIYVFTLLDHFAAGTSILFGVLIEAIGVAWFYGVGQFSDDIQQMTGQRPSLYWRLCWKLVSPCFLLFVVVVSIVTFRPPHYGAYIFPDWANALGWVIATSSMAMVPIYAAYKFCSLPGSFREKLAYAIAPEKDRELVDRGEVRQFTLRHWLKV
Method: as §1, §2

human androgen receptor = target: T5, human androgen receptor (Homo sapiens, UniProt P10275, T878A); experiment: Human Androgen Receptor (AR) Binding; details: AR Binding Activity Ki (μM)
T5 construct: The human androgen receptor was expressed in LNCAP cells; endogenous in cells; host or cells: LNCaP cells (supernatant of homogenate)
T5 sequence (P10275 1-920 T878A): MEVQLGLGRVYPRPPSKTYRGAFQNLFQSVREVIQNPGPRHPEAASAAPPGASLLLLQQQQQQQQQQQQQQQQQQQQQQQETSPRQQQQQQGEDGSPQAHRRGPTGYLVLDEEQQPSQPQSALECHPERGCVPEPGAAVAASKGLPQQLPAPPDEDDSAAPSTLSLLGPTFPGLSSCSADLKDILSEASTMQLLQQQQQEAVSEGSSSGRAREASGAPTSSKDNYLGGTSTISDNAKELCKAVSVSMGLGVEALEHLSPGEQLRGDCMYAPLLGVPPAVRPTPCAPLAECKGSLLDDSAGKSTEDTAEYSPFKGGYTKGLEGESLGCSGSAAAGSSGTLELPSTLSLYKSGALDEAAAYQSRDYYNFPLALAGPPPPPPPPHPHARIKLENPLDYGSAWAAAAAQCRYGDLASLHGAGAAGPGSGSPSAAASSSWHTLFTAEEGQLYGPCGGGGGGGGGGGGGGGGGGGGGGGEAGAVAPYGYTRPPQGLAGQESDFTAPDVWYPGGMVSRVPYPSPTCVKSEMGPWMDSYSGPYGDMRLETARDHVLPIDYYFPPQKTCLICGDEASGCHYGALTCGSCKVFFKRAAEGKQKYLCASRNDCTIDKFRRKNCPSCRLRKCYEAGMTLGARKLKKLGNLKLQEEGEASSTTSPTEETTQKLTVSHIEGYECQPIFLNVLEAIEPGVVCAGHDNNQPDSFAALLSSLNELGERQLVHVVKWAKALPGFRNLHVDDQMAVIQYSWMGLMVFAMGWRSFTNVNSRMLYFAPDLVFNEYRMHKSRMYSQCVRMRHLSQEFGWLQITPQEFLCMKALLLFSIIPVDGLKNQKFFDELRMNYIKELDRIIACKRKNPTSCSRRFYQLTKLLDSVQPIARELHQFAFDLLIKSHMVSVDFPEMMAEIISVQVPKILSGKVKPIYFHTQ
Method: Tissue Preparation: The human androgen receptor was expressed in LNCAP cells which were cultured and harvested by trypsinization from T-175 flasks. The frozen pellet was thawed and resuspended by sonication, then diluted to the appropriate concentration. The homogenate was centrifuged @ 48,000 g for 10 min at 4° C. The supernatant was used. The protein was determined. The tissue was diluted to 0.325 mg/mL with assay buffer so that each tube received 65 μg of protein, or the final assay concentration was 0.260 mg/mL.
Buffers: 25 mM HEPES pH7.4; 1.0 mM EDTA; 10 mM sodium molybdate; 10% Glycerol; 0.5 mM PFSM (dissolved PMSF in EtOH first, before adding to remaining buffer).
Binding Reaction: (Liao, et al. “The Use of a Hydroxylapatite-Filter Steroid Receptor Assay Method in the Study of the Modulation of Androgen Receptor Interaction.” J. Steroid Biochem. (1984), 20:11-17 (with modifications)). […] The binding reaction was initiated with the addition of tissue, and was incubated at 0-4° C. (in refrigerator) for 18-22 h (overnight). The binding reaction was terminated by rapid filtration of the tube contents onto 0.1% PEI treated GF/B filters. The assay tubes were rinsed once with ice-cold […] HEPES, then rapidly rinsed with 6×1 mL/tube of the same wash buffer. Radioactivity trapped on the filters was assessed using liquid scintillation spectrophotometry after soaking the filers for at least 1 h in scintillation cocktail. […] Specific binding was calculated from the difference between the total and non-specific binding. IC50 values were determined by plotting specific binding as a function of test-compound concentration.

[2] = Reference Compound Methyltrienolone
[3] = first column, Reference Compound Mibolerone
[4] = second column, Reference Compound Mibolerone

Row | SMILES | inhibition at 10 µM (Adenosine A1 (h)) [%] | inhibition at 10 µM (Angiotensin AT1 (h)) [%] | inhibition at 10 µM (Melanocortin MC4 (h)) [%] | % Inhibition of Control Specific Binding @ 10 μM (opioid (ns)) [%] | % Inhibition of Control Specific Binding @ 10 μM [1] [%] | inhibition at 10 µM (dopamine transporter (h)) [%] | Ki (human androgen receptor; [2]) [µM] | Ki (human androgen receptor; [3]) [µM] | Ki (human androgen receptor; [4]) [µM]
1 | CC1(C)C(=O)N(c2ccc(C#N)c(C(F)(F)F)c2)C(=S)N1c1ccc(C(=O)O)c(F)c1 [(MI), 4-(3-(4-cyano-3-(trifluoromethyl)phenyl)-5,5-dimethyl-4-oxo-2-thioxoimidazolidin-1-yl)-2-fluorobenzoic acid] | 10 | 11 | -23 | −6 | 47 | 32 | > 10 |  | 
2 | CC1(C)C(=O)N(c2ccc(C#N)c(C(F)(F)F)c2)C(=S)N1c1ccc(C(N)=O)c(F)c1 [(MII), 4-(3-(4-Cyano-3-(trifluoromethyl)phenyl)-5,5-dimethyl-4-oxo-2-thioxoimidazolidin-1-yl)-2-fluorobenzamide] | 9 | 0 | -25 | −14 | 81 | 23 | 0.059 | 0.074 | 0.051
3 | CC1(C)C(=O)N(c2ccc(C#N)c(C(F)(F)F)c2)C(=O)N1c1ccc(C(N)=O)c(F)c1 [(MIII), 4-(3-(4-cyano-3-(trifluoromethyl)phenyl)-5,5-dimethyl-2,4-dioxoimidazolidin-1-yl)-2-fluorobenzamide] | 2 | 6 | -11 | −15 | 38 | 13 | 0.314 | 0.83 | 1.5
4 | CNC(=O)c1ccc(N2C(=O)N(c3ccc(C#N)c(C(F)(F)F)c3)C(=O)C2(C)C)cc1F [(MIV), 4-(3-(4-cyano-3-(trifluoromethyl)phenyl)-5,5-dimethyl-2,4-dioxoimidazolidin-1-yl)-2-fluoro-N-methylbenzamide] | 6 | 0 | -15 | −10 | 36 | 7 | 0.361 | 0.69 | 0.97
